Earlier results as cited in PMC7770833, “Design, Synthesis, and Biological Evaluation of a Series of Oxazolone Carboxamides as a Novel Class of Acid Ceramidase Inhibitors” (Journal of Medicinal Chemistry, 2020).
Read-outs that look alike come from different tables or passages of the source.

Columns and labels:
[1] = target: human ceramidase (hCDase); conditions: in SKOV3 cells; cited from earlier work
[2] = tested on: AC; conditions: HL-60 cell lysates; cited from earlier work
[3] = tested on: AC; conditions: HaCaT cell lysates; cited from earlier work

## COc1ccc(/C=C/C(=O)c2c(-c3ccccc3)c3cc(C)ccc3[nH]c2=O)cc1 [Ceranib-1]
[1]
  IC50: 55 µM

## CCCCCCCCCCCCCC(=O)N[C@H](C)[C@@H](O)c1ccccc1 [D-e-MAPP, D-erithro-2-(N-myristoylamino)-1-phenyl-1-propanol]
[2]
  IC50: > 500 µM

## CCCCCCCCCCCCCC(=O)N[C@H](CO)[C@H](O)c1ccc([N+](=O)[O-])cc1 [Compound B13]
[3]
  IC50: ~10 µM
